From BindingDB's records for patent US20250257051 (1910 Genetics, 2025)

The molecules below were run against T1, Non-receptor tyrosine-protein kinase TYK2 [556-888] (Homo sapiens, UniProt P29597) (assay: TYK2 JH2 Domain Binding Assay).
T1 construct: 556-888
Description: Binding constants for compounds disclosed herein against the JH2 domain are determined by the following protocol for a KINOMEscan assay (DiscoveRx). A fusion protein of a partial length construct of human TYK2 (JH2domain-pseudokinase) (amino acids G556 to D888 based on reference sequence NP 003322.3) and the DNA binding domain of NFkB is expressed in transiently transfected HEK293 cells. From these HEK 293 cells, extracts are prepared in M-PER extraction buffer (Pierce) in the presence of Protease Inhibitor Cocktail Complete (Roche) and Phosphatase Inhibitor Cocktail Set II (Merck) per manufacturers' instructions. The TYK2 (JH2domain-pseudokinase) fusion protein is labeled with a chimeric double-stranded DNA tag containing the NFkB binding site (5′-GGGAATTCCC-3′) fused to an amplicon for qPCR readout, which is added directly to the expression extract (the final concentration of DNA-tag in the binding reaction is 0.1 nM).

T1 sequence (P29597 556-888): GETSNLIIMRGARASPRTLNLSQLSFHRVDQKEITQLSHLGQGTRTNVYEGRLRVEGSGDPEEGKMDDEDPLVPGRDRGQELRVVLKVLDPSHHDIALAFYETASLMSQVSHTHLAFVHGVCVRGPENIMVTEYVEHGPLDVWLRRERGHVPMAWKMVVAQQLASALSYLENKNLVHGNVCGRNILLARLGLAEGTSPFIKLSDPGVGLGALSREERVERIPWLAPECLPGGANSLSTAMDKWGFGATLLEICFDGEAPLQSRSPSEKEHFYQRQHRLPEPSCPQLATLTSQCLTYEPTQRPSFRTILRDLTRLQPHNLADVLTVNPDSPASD

Point of comparison: CNC(=O)c1cnc(N2CCCC2)nc1Nc1ccc(C2CC2)nc1 [US20250257051, Compound 10], Kd 0.37 µM. Against it:
- CC(C)(C)OC(=O)N1CCCN(c2ncc(C(N)=O)c(Nc3ccccc3S(C)(=O)=O)n2)CC1 [US20250257051, Compound 65] — 7.8-fold higher, 2.9 µM
- CNC(=O)c1cnc(N2CCNCC2C)nc1Nc1ccc(C2CC2)nc1 (centres undefined) [US20250257051, Compound 14] — 51-fold higher, 19 µM
- COc1ccccc1Nc1nc(N2CCCNCC2)ncc1C(N)=O [US20250257051, Compound 40] — 8.9-fold higher, 3.3 µM
